pIC50: −log10 of the molar value.
Legend:
[1] = biological target: Dipeptidyl peptidase 4 (Sus scrofa) (UniProt P22411); test: Inhibition of porcine DPP4 assessed as residual enzyme activity using H-Gly-Pro-AMC as substrate by fluorescence assay
Dipeptidyl peptidase 4 [2] = biological target: T1, Dipeptidyl peptidase 4 (Sus scrofa, UniProt P22411); test: Inhibition of porcine DPP4
Dipeptidyl peptidase 4 [3] = biological target: T1, Dipeptidyl peptidase 4; test: Inhibition of porcine DPP4 using H-Gly-Pro-AMC as substrate by fluorescence assay
Dipeptidyl peptidase 4 [4] = biological target: Dipeptidyl peptidase 4 (Homo sapiens, UniProt P27487); test: Inhibition of human DPP4 using H-Gly-Pro-AMC as substrate by fluorescence assay
Chain of Dipeptidyl peptidase 4 (Homo sapiens, UniProt P27487) (P27487 whole entry): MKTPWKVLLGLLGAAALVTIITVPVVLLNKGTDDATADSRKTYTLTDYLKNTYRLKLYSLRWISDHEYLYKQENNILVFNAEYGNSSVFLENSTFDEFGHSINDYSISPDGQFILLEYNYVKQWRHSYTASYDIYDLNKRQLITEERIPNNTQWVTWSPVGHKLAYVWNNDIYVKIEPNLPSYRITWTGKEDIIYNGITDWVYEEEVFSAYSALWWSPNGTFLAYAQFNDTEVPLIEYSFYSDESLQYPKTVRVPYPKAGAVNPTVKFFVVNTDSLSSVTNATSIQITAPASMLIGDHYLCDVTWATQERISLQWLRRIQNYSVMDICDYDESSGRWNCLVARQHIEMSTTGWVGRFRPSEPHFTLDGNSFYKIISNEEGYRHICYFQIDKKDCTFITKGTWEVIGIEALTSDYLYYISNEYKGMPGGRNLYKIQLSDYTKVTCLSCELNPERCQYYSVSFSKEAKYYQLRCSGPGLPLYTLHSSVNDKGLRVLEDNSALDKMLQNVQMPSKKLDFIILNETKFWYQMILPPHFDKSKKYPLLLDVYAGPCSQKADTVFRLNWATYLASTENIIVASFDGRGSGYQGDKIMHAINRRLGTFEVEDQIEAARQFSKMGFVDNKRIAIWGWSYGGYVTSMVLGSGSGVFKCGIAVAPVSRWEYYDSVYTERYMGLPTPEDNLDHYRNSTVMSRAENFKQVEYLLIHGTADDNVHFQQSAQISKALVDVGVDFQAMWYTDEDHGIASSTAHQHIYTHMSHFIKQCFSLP

Chain of Dipeptidyl peptidase 4 (Sus scrofa) (P22411 whole entry, looked up): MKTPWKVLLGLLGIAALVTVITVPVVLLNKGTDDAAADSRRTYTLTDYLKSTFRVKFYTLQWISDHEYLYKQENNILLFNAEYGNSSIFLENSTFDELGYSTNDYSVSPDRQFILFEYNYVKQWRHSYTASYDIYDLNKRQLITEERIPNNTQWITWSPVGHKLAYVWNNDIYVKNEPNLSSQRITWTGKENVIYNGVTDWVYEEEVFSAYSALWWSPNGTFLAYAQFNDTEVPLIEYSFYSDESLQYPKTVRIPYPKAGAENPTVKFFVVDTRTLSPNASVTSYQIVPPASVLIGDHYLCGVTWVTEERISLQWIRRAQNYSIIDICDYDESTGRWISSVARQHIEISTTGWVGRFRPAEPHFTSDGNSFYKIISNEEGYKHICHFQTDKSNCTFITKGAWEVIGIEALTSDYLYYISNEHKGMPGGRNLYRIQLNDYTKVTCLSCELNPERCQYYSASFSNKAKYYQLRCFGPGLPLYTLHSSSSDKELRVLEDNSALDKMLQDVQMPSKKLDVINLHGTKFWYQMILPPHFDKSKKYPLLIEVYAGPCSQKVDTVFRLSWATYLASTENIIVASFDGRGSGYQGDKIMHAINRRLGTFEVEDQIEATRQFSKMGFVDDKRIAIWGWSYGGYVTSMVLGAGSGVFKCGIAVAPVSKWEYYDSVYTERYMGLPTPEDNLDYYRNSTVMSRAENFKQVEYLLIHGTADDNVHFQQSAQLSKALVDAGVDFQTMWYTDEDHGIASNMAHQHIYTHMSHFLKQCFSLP
T1 sequence (P22411 whole entry): as the sequence (P22411 whole entry, looked up) above

Row | Compound | Activity [1] | pIC50 (Dipeptidyl peptidase 4 [2]) | pIC50 (Dipeptidyl peptidase 4 [3]) | pIC50 (Dipeptidyl peptidase 4 [4])
1 | CC(C)=CCn1c(O[C@@H](C)CN)nc2c1c(=O)n(CC(=O)c1ccccc1)c(=O)n2C | 420 nM | – | – | –
2 | CC(C)=CCn1c(N2CCC[C@H](N)C2)nc2c1c(=O)n(C)c(=O)n2C | 6 nM | – | – | –
3 | CC(C)=CCn1c(OC[C@@H](N)Cc2ccccc2)nc2c1c(=O)n(C)c(=O)n2C | 430 nM | – | – | –
4 | CC(C)=CCn1c(OCC(C)(C)CN)nc2c1c(=O)n(C)c(=O)n2C | 260 nM | – | – | –
5 | CC(C)=CCn1c(N2CCC[C@@H](N)C2)nc2c1c(=O)n(CC(=O)c1ccccc1)c(=O)n2C | 0.7 nM | > 7.40 | 9.14 | –
6 | CC(C)=CCn1c(OC[C@H]2CCCN2)nc2c1c(=O)n(C)c(=O)n2C | > 7000 nM | – | – | –
7 | CC(C)=CCn1c(OC2CCNCC2)nc2c1c(=O)n(CC(=O)c1ccccc1)c(=O)n2C | 275 nM | 5.96 | 6.56 | < 6.00
8 | CC(C)=CCn1c(OC[C@@H]2CCCN2)nc2c1c(=O)n(CC(=O)c1ccccc1)c(=O)n2C | 2.6 nM | 7.77 | 7.80 | –
9 | CC(C)=CCn1c(N2CCNCC2)nc2c1c(=O)n(CC(=O)c1ccccc1)c(=O)n2C | 11 nM | – | – | –
10 | CC(C)=CCn1c(OC[C@H](C)N)nc2c1c(=O)n(C)c(=O)n2C | 780 nM | – | – | –
11 | CC(C)=CCn1c(OCC(C)(C)CN)nc2c1c(=O)n(CC(=O)c1ccccc1)c(=O)n2C | 6 nM | 8.05 | 8.19 | –
12 | CC(C)=CCn1c(N2CCC3CNCC32)nc2c1c(=O)n(C)c(=O)n2C (configuration not stated) | 132 nM | 6.68 | 6.89 | –
13 | CC(C)=CCn1c(O[C@H]2CCNC2)nc2c1c(=O)n(C)c(=O)n2C | > 8000 nM | – | – | –

The next lines start with the values.

Row | Activity [1] | pIC50 (Dipeptidyl peptidase 4 [2]) | pIC50 (Dipeptidyl peptidase 4 [3]) | pIC50 (Dipeptidyl peptidase 4 [4]) | Compound
14 | 22 nM | – | – | – | CC(C)=CCn1c(OCCCN)nc2c1c(=O)n(CC(=O)c1ccccc1)c(=O)n2C
15 | > 5000 nM | – | – | – | CC(C)=CCn1c(OC2CCNCC2)nc2c1c(=O)n(C)c(=O)n2C
16 | 11 nM | – | – | – | CC(C)=CCn1c(N2CCC[C@@H](N)C2)nc2c1c(=O)n(C)c(=O)n2C
17 | 269 nM | – | – | – | CC(C)=CCn1c(N2CC3CCCNC3C2)nc2c1c(=O)n(CC(=O)c1ccccc1)c(=O)n2C (configuration not stated)
18 | 580 nM | 5.60 | 6.15 | – | CC(C)=CCn1c(OC[C@H]2CCCN2)nc2c1c(=O)n(CC(=O)c1ccccc1)c(=O)n2C
19 | > 24500 nM | – | – | – | CC(C)=CCn1c(N2CC3CCCNC3C2)nc2c1c(=O)n(C)c(=O)n2C (configuration not stated)
20 | 4 nM | – | – | – | CC(C)=CCn1c(N2CCC[C@H](N)C2)nc2c1c(=O)n(CC(=O)c1ccccc1)c(=O)n2C
21 | 6000 nM | – | – | – | CC(C)=CCn1c(N2CC3CCNC3C2)nc2c1c(=O)n(C)c(=O)n2C (configuration not stated)
22 | 173 nM | – | – | – | CC(C)=CCn1c(N2CCNCC2)nc2c1c(=O)n(C)c(=O)n2C
23 | 1600 nM | – | – | – | CC(C)=CCn1c(OC[C@@H]2CCCN2)nc2c1c(=O)n(C)c(=O)n2C
24 | > 7000 nM | – | – | – | CC(C)=CCn1c(O[C@@H]2CCNC2)nc2c1c(=O)n(C)c(=O)n2C

Reference: ChEMBL document CHEMBL2406945, “Integrated Synthesis and Testing of Substituted Xanthine Based DPP4 Inhibitors: Application to Drug Discovery” (ACS Med Chem Lett, 2013)
